Experimental data: US11104674B2 (Hoffmann-La Roche Inc., priority 2016, dated 2021)

Test system: HBsAg
Assay: HBsAg assay (chemiluminescence immunoassay of secreted HBsAg)
Type: cell-based, HBV
Details: Hepatitis B virus, HepG2.2.15, HBsAg secretion, HepG2.2.15 cells, CLIA of culture supernatant
Summary of the method: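 HepG2.2.15 cells, in duplicate, treated with three-fold serial compound dilutions (1% DMSO final); secreted HBsAg in supernatant quantified by chemiluminescence immunoassay; IC50 is the concentration reducing HBsAg secretion by 50% versus the DMSO control.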

Structure (SMILES) | IC50 [nM]
CC1c2cnc(-c3ncccn3)nc2CCN1c1cc(N2CCC(NS(C)(=O)=O)CC2)cc(F)n1 (centres unmarked) [Example 88, N-[1-[2-fluoro-6-(5-methyl-2-pyrimidin-2-yl-7,8-dihydro-5H-pyrido[4,3-d]pyrimidin-6-yl)-4-pyridyl]-4-piperidyl]methanesulfonamide] | 18
CC1c2cnc(-c3ncccn3)nc2CCN1c1cc(F)cc(N2CCC(NS(C)(=O)=O)CC2)n1 (centres unmarked) [Example 89, N-[1-[4-fluoro-6-(5-methyl-2-pyrimidin-2-yl-7,8-dihydro-5H-pyrido[4,3-d]pyrimidin-6-yl)-2-pyridyl]-4-piperidyl]methanesulfonamide] | 12
CCS(=O)(=O)N1CCN(c2cc(F)cc(N3CCc4nc(-c5ncccn5)ncc4C3C)n2)CC1 (centres unmarked) [Example 91, 6-[6-(4-ethylsulfonylpiperazin-1-yl)-4-fluoro-2-pyridyl]-5-methyl-2-pyrimidin-2-yl-7,8-dihydro-5H-pyrido[4,3-d]pyrimidine] | 12
CC1c2cnc(-c3ncccn3)nc2CCN1c1cc(F)cc(N2CC(C(=O)O)C(C)(C)C2)n1 (centres unmarked) [Example 92, 1-[4-fluoro-6-(5-methyl-2-pyrimidin-2-yl-7,8-dihydro-5H-pyrido[4,3-d]pyrimidin-6-yl)-2-pyridyl]-4,4-dimethyl-pyrrolidine-3-carboxylic acid] | 139
CC1c2cnc(-c3ncccn3)nc2CCN1c1cc(N2CCN(CC(=O)O)CC2)cc(F)n1 (centres unmarked) [Example 94, 2-[4-[2-fluoro-6-(5-methyl-2-pyrimidin-2-yl-7,8-dihydro-5H-pyrido[4,3-d]pyrimidin-6-yl)-4-pyridyl]piperazin-1-yl]acetic acid] | 8860
CC1c2cnc(-c3ncccn3)nc2CCN1c1cc(F)cc(N2CCN(CC(=O)O)CC2)n1 (centres unmarked) [Example 95, 2-[4-[4-fluoro-6-(5-methyl-2-pyrimidin-2-yl-7,8-dihydro-5H-pyrido[4,3-d]pyrimidin-6-yl)-2-pyridyl]piperazin-1-yl]acetic acid] | 3780
CC1c2cnc(-c3ncccn3)nc2CCN1c1cc(NC2CCN(S(C)(=O)=O)CC2)cc(F)n1 (centres unmarked) [Example 96, 2-Fluoro-6-(5-methyl-2-pyrimidin-2-yl-7,8-dihydro-5H-pyrido[4,3-d]pyrimidin-6-yl)-N-(1-methylsulfonyl-4-piperidyl)pyridin-4-amine] | 125
CC1c2cnc(-c3ncccn3)nc2CCN1c1cc(F)cc(N2CCN(S(C)(=O)=O)C(C)(C)C2)n1 (centres unmarked) [Example 99, 6-[6-(3,3-dimethyl-4-methylsulfonyl-piperazin-1-yl)-4-fluoro-2-pyridyl]-5-methyl-2-pyrimidin-2-yl-7,8-dihydro-5H-pyrido[4,3-d]pyrimidine] | 26
CC1c2cnc(-c3ncccn3)nc2CCN1c1cc(N2CCN(S(C)(=O)=O)C(C)(C)C2)cc(F)n1 (centres unmarked) [Example 100, 6-[4-(3,3-dimethyl-4-methylsulfonyl-piperazin-1-yl)-6-fluoro-2-pyridyl]-5-methyl-2-pyrimidin-2-yl-7,8-dihydro-5H-pyrido[4,3-d]pyrimidine] | 13
CC1c2cnc(-c3ncccn3)nc2CCN1c1cc(F)cc(N2CCN(CC(N)=O)CC2)n1 (centres unmarked) [Example 101, 2-[4-[4-fluoro-6-(5-methyl-2-pyrimidin-2-yl-7,8-dihydro-5H-pyrido[4,3-d]pyrimidin-6-yl)-2-pyridyl]piperazin-1-yl]acetamide] | 60
CC1c2cnc(-c3ncccn3)nc2CCN1c1cc(N2CCN(CC(N)=O)CC2)cc(F)n1 (centres unmarked) [Example 102, 2-[4-[2-fluoro-6-(5-methyl-2-pyrimidin-2-yl-7,8-dihydro-5H-pyrido[4,3-d]pyrimidin-6-yl)-4-pyridyl]piperazin-1-yl]acetamide] | 29
CC1c2cnc(-c3ncccn3)nc2CCN1c1cc(F)cc(N2CCN(CCC(N)=O)CC2)n1 (centres unmarked) [Example 103, 3-[4-[4-fluoro-6-(5-methyl-2-pyrimidin-2-yl-7,8-dihydro-5H-pyrido[4,3-d]pyrimidin-6-yl)-2-pyridyl]piperazin-1-yl]propanamide] | 1350
CC1c2cnc(-c3ncccn3)nc2CCN1c1cc(N2CCN(CCC(N)=O)CC2)cc(F)n1 (centres unmarked) [Example 104, 3-[4-[2-fluoro-6-(5-methyl-2-pyrimidin-2-yl-7,8-dihydro-5H-pyrido[4,3-d]pyrimidin-6-yl)-4-pyridyl]piperazin-1-yl]propanamide] | 220
CC1c2cnc(-c3ncccn3)nc2CCN1c1cc(F)cc(N2CCN(S(C)(=O)=O)C(C)C2)n1 (centres unmarked) [Example 105, 6-[4-fluoro-6-(3-methyl-4-methylsulfonyl-piperazin-1-yl)-2-pyridyl]-5-methyl-2-pyrimidin-2-yl-7,8-dihydro-5H-pyrido[4,3-d]pyrimidine] | 23
CC1c2cnc(-c3ncccn3)nc2CCN1c1cc(N2CCN(S(C)(=O)=O)C(C)C2)cc(F)n1 (centres unmarked) [Example 106, 6-[6-fluoro-4-(3-methyl-4-methylsulfonyl-piperazin-1-yl)-2-pyridyl]-5-methyl-2-pyrimidin-2-yl-7,8-dihydro-5H-pyrido[4,3-d]pyrimidine] | 7
CC1c2cnc(-c3ncccn3)nc2CCN1c1cc(F)nc(N2CCN(S(C)(=O)=O)CC2)c1 (centres unmarked) [Example 107, 6-[2-Fluoro-6-(4-methylsulfonylpiperazin-1-yl)-4-pyridyl]-5-methyl-2-pyrimidin-2-yl-7,8-dihydro-5H-pyrido[4,3-d]pyrimidine] | 10

Structure (SMILES) | IC50 [nM]
COC1CCN(c2cc(N3CCc4nc(-c5ncccn5)ncc4C3C)cc(F)n2)C1 (centres unmarked) [Example 108, 6-[2-Fluoro-6-(3-methoxypyrrolidin-1-yl)-4-pyridyl]-5-methyl-2-pyrimidin-2-yl-7,8-dihydro-5H-pyrido[4,3-d]pyrimidine] | 13
CC1c2cnc(-c3ncccn3)nc2CCN1c1cc(F)cc(N2CCC2)n1 (centres unmarked) [Example 109, 6-[6-(azetidin-1-yl)-4-fluoro-2-pyridyl]-5-methyl-2-pyrimidin-2-yl-7,8-dihydro-5H-pyrido[4,3-d]pyrimidine] | 21
CC1c2cnc(-c3ncccn3)nc2CCN1c1cc(N2CCC2)cc(F)n1 (centres unmarked) [Example 110, 6-[4-(azetidin-1-yl)-6-fluoro-2-pyridyl]-5-methyl-2-pyrimidin-2-yl-7,8-dihydro-5H-pyrido[4,3-d]pyrimidine] | 8
COC1CN(c2cc(F)cc(N3CCc4nc(-c5ncccn5)ncc4C3C)n2)C1 (centres unmarked) [Example 111, 6-[4-fluoro-6-(3-methoxyazetidin-1-yl)-2-pyridyl]-5-methyl-2-pyrimidin-2-yl-7,8-dihydro-5H-pyrido[4,3-d]pyrimidine] | 26
CC1c2cnc(-c3ncccn3)nc2CCN1c1cc(N2CCCC2=O)cc(F)n1 (centres unmarked) [Example 113, 1-[2-Fluoro-6-(5-methyl-2-pyrimidin-2-yl-7,8-dihydro-5H-pyrido[4,3-d]pyrimidin-6-yl)-4-pyridyl]pyrrolidin-2-one] | 4
CC1c2cnc(-c3ncccn3)nc2CCN1c1cc(N2CC(C)(C)OC2=O)cc(F)n1 (centres unmarked) [Example 114, 3-[2-Fluoro-6-(5-methyl-2-pyrimidin-2-yl-7,8-dihydro-5H-pyrido[4,3-d]pyrimidin-6-yl)-4-pyridyl]-5,5-dimethyl-oxazolidin-2-one] | 8
CC1C(=O)NCCN1c1cc(F)cc(N2CCc3nc(-c4ncccn4)ncc3C2C)n1 (centres unmarked) [Example 116, 4-[4-fluoro-6-(5-methyl-2-pyrimidin-2-yl-7,8-dihydro-5H-pyrido[4,3-d]pyrimidin-6-yl)-2-pyridyl]-3-methyl-piperazin-2-one] | 103
CC1C(=O)NCCN1c1cc(F)nc(N2CCc3nc(-c4ncccn4)ncc3C2C)c1 (centres unmarked) [Example 117, 4-[2-fluoro-6-(5-methyl-2-pyrimidin-2-yl-7,8-dihydro-5H-pyrido[4,3-d]pyrimidin-6-yl)-4-pyridyl]-3-methyl-piperazin-2-one] | 106
CC1c2cnc(-c3ncccn3)nc2CCN1c1cc(F)cc(N2CC(NS(C)(=O)=O)C2)n1 (centres unmarked) [Example 118, N-[1-[4-fluoro-6-(5-methyl-2-pyrimidin-2-yl-7,8-dihydro-5H-pyrido[4,3-d]pyrimidin-6-yl)-2-pyridyl]azetidin-3-yl]methanesulfonamide] | 94
CC1c2cnc(-c3ncccn3)nc2CCN1c1cc(N2CC(NS(C)(=O)=O)C2)cc(F)n1 (centres unmarked) [Example 119, N-[1-[2-fluoro-6-(5-methyl-2-pyrimidin-2-yl-7,8-dihydro-5H-pyrido[4,3-d]pyrimidin-6-yl)-4-pyridyl]azetidin-3-yl]methanesulfonamide] | 57
CC1c2cnc(-c3ncccn3)nc2CCN1c1cc(F)cc(NC2CNC2)n1 (centres unmarked) [Example 120, N-(azetidin-3-yl)-4-fluoro-6-(5-methyl-2-pyrimidin-2-yl-7,8-dihydro-5H-pyrido[4,3-d]pyrimidin-6-yl)pyridin-2-amine] | 33300
CC1c2cnc(-c3ncccn3)nc2CCN1c1cc(NC2CNC2)cc(F)n1 (centres unmarked) [Example 121, N-(azetidin-3-yl)-2-fluoro-6-(5-methyl-2-pyrimidin-2-yl-7,8-dihydro-5H-pyrido[4,3-d]pyrimidin-6-yl)pyridin-4-amine] | 496
CC1c2cnc(-c3ncccn3)nc2CCN1c1cc(F)cc(N2CC(F)C2)n1 (centres unmarked) [Example 122, 6-[4-fluoro-6-(3-fluoroazetidin-1-yl)-2-pyridyl]-5-methyl-2-pyrimidin-2-yl-7,8-dihydro-5H-pyrido[4,3-d]pyrimidine] | 28
CC1c2cnc(-c3ncccn3)nc2CCN1c1cc(N2CC(O)C2)cc(F)n1 (centres unmarked) [Example 124, 1-[2-Fluoro-6-(5-methyl-2-pyrimidin-2-yl-7,8-dihydro-5H-pyrido[4,3-d]pyrimidin-6-yl)-4-pyridyl]azetidin-3-ol] | 33
CC1c2cnc(-c3ncccn3)nc2CCN1c1cc(F)cc(N2CC(F)(F)C2)n1 (centres unmarked) [Example 125, 6-[6-(3,3-difluoroazetidin-1-yl)-4-fluoro-2-pyridyl]-5-methyl-2-pyrimidin-2-yl-7,8-dihydro-5H-pyrido[4,3-d]pyrimidine] | 38
CC1c2cnc(-c3ncccn3)nc2CCN1c1cc(N2CC(F)(F)C2)cc(F)n1 (centres unmarked) [Example 126, 6-[4-(3,3-difluoroazetidin-1-yl)-6-fluoro-2-pyridyl]-5-methyl-2-pyrimidin-2-yl-7,8-dihydro-5H-pyrido[4,3-d]pyrimidine] | 12
